What all share (assay type): cell-based, human
One experiment deals with M-MITF. The experiment can be described thus: M-MITF gene expression by qRT-PCR in WM9 cells. Conditions: WM9, 48 h, Gamitrinib 1 μM added to PLX4720 10 μM and PD0325901 1 μM. On the procedure:
(§1) One μg total mRNA was reverse transcribed using a Maxima First Strand cDNA Synthesis Kit for qRT-PCR (Thermo Fisher). Fast SYBR® Green Master Mix (Life Technologies) was used with cDNA template and primers to evaluate the expression of target genes and GAPDH. Primers used were purchased from Integrated DNA Technologies. Amplifications were performed using an Applied Biosystems® 7500 Real-Time PCR System (Life Technologies). All experiments were performed in triplicate. Expression ratios of controls were normalized to 1. Please see Extended Experimental Procedures for the list of PCR primer sequences.
(In general: Real-time PCR tracks product formation cycle by cycle.)

The subject of the next experiment is autophagic flux. The experiment can be described thus: Autophagic flux in WM9 cells expressing mCherry-eGFP-LC3B. To be noted: WM9, 72 h, Gamitrinib 1 μM or Spautin-1 10 μM combined with PLX4720 10 μM/PD0325901 1 μM. The protocol:
WM9 cells stably expressing pLVO-Puro-mCherry-eGFP-LC3 were analyzed with a BD LSR II flow cytometer. Fluorescence of mCherry and eGFP was recorded to derive the ratio of mCherryheight over eGFP-height. This ratio indicates the autophagic flux.
Briefly, autophagic flux was assessed by FACS analysis of WM9 cells expressing the mCherry-eGFPLC3B construct that were transfected with the indicated siRNAs targeting autophagy and ER stress response and treated for 72 h with DMSO or the combination of PLX4720 at 10 μM and PD0325901 at 1 μM. The data represent the average of 2 biological replicates. Induction of apoptosis and cell death was assessed by PSVue 643 staining in WM9 cells expressing the mCherry-eGFP-LC3B construct transfected with the indicated siRNAs targeting autophagy and ER stress response and treated for 72 h with DMSO or the combination of PLX4720 at 10 μM and PD0325901 at 1 μM. Autophagic flux was assessed by FACS analysis of WM9 cells expressing the mCherry-eGFPLC3B construct treated for 72 h with Gamitrinib at 1 μM or Spautin-1 at 10 μM in combination with PLX4720 at 10 μM/PD0325901 at 1 μM. Cells treated with DMSO were used as the control for setting up the gate. Induction of apoptosis and cell death was assessed by PSVue 643 staining in WM9 cells treated for 72 h with Gamitrinib at 1 μM or Spautin-1 at 10 μM in combination with PLX4720 at 10 μM/PD0325901 at 1 μM. […]

For the next experiment, the system named is reactive oxygen species. The experiment can be described thus: ROS by CellROX Deep Red. Conditions: WM9, 72 h, Gamitrinib 1 μM with PLX4720 10 μM and PD0325901 1 μM. On the procedure: Adherent melanoma cells were harvested with 0.05% Trypsin-EDTA and were washed once with 1×DPBS. Cells were labeled with CellTrace™ Violet according to the manufacturer's protocol and were allowed to adhere to tissue culture plates overnight following the drug treatment. At indicated time points following the drug treatment, floating and adherent cells were pooled, washed with Hank's Buffered Salt Solution (HBSS) and then stained with CellROX Deep Red at 2.5 μM or MitoTracer Red at 0.25 μM for 1 h in a 37° C. humidified incubator supplied with 5% CO2. Cells were then pelleted, washed with DPBS, and stained with PSVue® 643 at 5 μM diluted in TES buffer for 5 min in the dark. Cells were then immediately subjected to FACS analysis using a BD LSR II flow cytometer and at least 5,000 cells per sample were acquired.
Labeling cells with CellROX Deep Red—Following drug treatment, floating and adherent cells were pooled and stained in FACS tubes with CellROX Deep Red at 2.5 μM. Fluorescent dyes were diluted in 10% DMEM/F12 culture medium. Stained cell suspensions were kept in a 37° C. tissue culture incubator for 60 min with brief vortexing every 30 min. Cells were then washed with 1×PBS supplemented with 10% FBS.

A further experiment has as its system SOD2. The experiment can be described thus: SOD2 expression in WM9 cells (qRT-PCR, immunoblot). Conditions: WM9, 72 h, Gamitrinib 1 μM with MAPK pathway inhibitors. The protocol: as §1
Cells were washed with ice-cold PBS containing 100 μM Na3VO4 and scraped off culture dishes. After centrifugation, cell pellets were lysed in buffer containing 10 mM Tris-HCl, pH 7.8, 150 mM NaCl, 1 mM EDTA, 1% Nonidet P-40, 1 mM Na3VO4 and protease inhibitors (Roche complete protease inhibitor tablets). Lysates were cleared by micro-centrifugation and protein concentrations were determined with Protein Assay Dye Reagent Concentrate (Bio-Rad). For western blots, 25 μg of each lysate were run on 15-well 10% or 12% SDS-PAGE gels and transferred onto nitrocellulose membranes using a dye fast Trans-BlotR Turbo™ transfer system (Bio-Rad). […]

Another experiment has as its system 2-NBDG uptake. Put plainly: Uptake of 2-NBDG in WM9 cells. To be noted: WM9, 72 h, Gamitrinib combined with PLX4720 10 μM. The protocol: Cells were washed with HBSS and were then pre-incubated with Opti-MEM (Life Technologies) for 15 min. Cells were then incubated with DMEM deprived of glucose, glutamine and phenol red (Life Technologies, cat. #A14430-01) and Fetal Bovine Serum that was supplemented with 2-NBDG (Cayman Chemical, cat. #11046) at […] for 1 h. Cells were washed with HBSS and were immediately harvested for FACS analysis.

In experiment [1] the test system is mitochondrial DNA copy number. Put plainly: Mitochondrial DNA copy number. Conditions: WM9, Gamitrinib 1 μM combined with PLX4720 and PD0325901 or LGX818 and MEK162. On the procedure: Mitochondria DNA copy number was measured by the ratio of a mitochondrial gene, mtDNA-3, and a nuclear gene, 18S rRNA. The mtDNA-3/18S rRNA ratio was quantified by qRT-PCR on an Applied Biosystems 7500 Fast Real-Time PCR System. The reaction mixtures (25 μL final volume) contained 12.5 μL Fast SYBR Green Master Mix, 500 nM of each primer and 10 ng genomic DNA. The reaction conditions were 95° C. for 20 s, followed by 45 cycles of 95° C. for 3 s and 60° C. for 30 s. The relative mtDNA copy number was analyzed by the 2-ΔΔCt method.

Another experiment deals with melanoma cells. The experiment can be described thus: Cell clonogenicity (colony formation). To be noted: long-term pretreatment, Gamitrinib 0.25 and 0.5 μM in combination with PLX4720. On the procedure:
Cell viability was measured by the MTT assay or CellTiter-Glo luminescent cell viability assay (Promega). For the assessment of cell clonogenicity, cells were seeded into 12-well tissue culture plates at a density of 500 cells/well as biological triplicates in drug-free medium. Medium was refreshed every 3 or 4 days for 14 days. Colonies were then stained overnight with methanol containing 0.05% crystal violet. After extensive washing with distilled H2O, cells were air-dried and subjected to image acquisition using a Nikon D200 DLSR camera.

Turning to Gamitrinib, in the experiment with M-MITF, the “M-MITF expression up-regulated by MAPK pathway inhibitors” value is “further down-regulated”. Besides, the autophagic flux result with autophagic flux was “decreased the autophagic flux”. Besides, in the experiment on reactive oxygen species, the “ROS production compared to MAPK pathway inhibitors alone” value is on record as “markedly increased the ROS production”. Also, in the experiment on SOD2, the “SOD2 expression compared to MAPK pathway inhibitors alone, mRNA and protein” value is “up-regulation of SOD2”. For the same substance, in the experiment on 2-NBDG uptake, the “uptake of 2-NBDG” value was “decreased uptake of 2-NBDG”. Besides, the “mitochondrial DNA copy number” value in experiment [1] is listed as “decreases in mitochondrial DNA copy number”. The colony formation result in the experiment on melanoma cells is given as “substantially inhibited colony formation”.

The record behind these values is patent US20240207202A1, “COMBINATION THERAPIES TARGETING MITOCHONDRIAL BIOGENESIS FOR CANCER THERAPY” (The Wistar Institute of Anatomy and Biology, priority 2015, published 2024).
